In patent publication US4257941A, “Polycyclic nitrogen-containing compounds” (BASF Aktiengesellschaft, priority 1976, dated 1981):

Key:
Type in all cases: in vivo
soybeans [1] = experiment: Growth of roots and shoots of soybeans, hydroponic (Example 16); conditions: for Root dry substance rel. / Root length rel. / Shoot dry substance rel. / Shoot length rel.: control 100
Protocol: (§1) Young soybean plants grown in quartz sand were transferred to hydroponic treatment in 4 liter vessels and provided with a sufficient supply of nutrient solution and trace elements. The active ingredients were added (0.25 mg/vessel=0.06 ppm; 1.0 mg/vessel=0.25 ppm; 2.5 mg/vessel=0.63 ppm) at a plant height of approx. 22 cm. The plants were in continuous contact with the active ingredients. […] The roots were also shorter, but the plants had more and stronger shoots.

soybeans [2] = experiment: Action on soybeans, hydroponic (Example 17a); conditions: for Root dry substance rel. / Root length rel. / Shoot dry substance rel. / Shoot length rel.: control 100
Protocol: as §1
(§2) The action on soybeans, field beans and sunflowers was examined under the same conditions as in Example 16. The shoots and roots of all 3 crop plants were considerably shortened. Whereas in the shoots the dry substance was reduced commensurately with the shortening, the dry substance in the roots rose (particularly in soybeans) as the concentration increased.

field beans = experiment: Action on field beans, hydroponic (Example 17b); conditions: for Root dry substance rel. / Root length rel. / Shoot dry substance rel. / Shoot length rel.: control 100
Protocol: as §1, §2

sunflowers = experiment: Action on sunflowers, hydroponic (Example 17c); conditions: for Root dry substance rel. / Root length rel. / Shoot dry substance rel. / Shoot length rel.: control 100
Protocol: as §1, §2

cotton = experiment: Induction of flowering and growth height of cotton, hydroponic (Example 18); conditions: for Shoot length: 4 weeks; for No. of squares per vessel (3 plants): control 0, average of 3 vessels; for Shoot length rel.: control 100
Protocol: Cotton plants were subjected to hydroponic treatment under the same conditions as in Example 16. The active ingredients were added (1.25 mg/vessel=0.3 ppm and 5 mg/vessel=1.25 ppm) at a height of the plant of 15 to 18 cm. […] The results below are averages from 3 vessels, each of 3 plants.

Question: What does the source list for Clc1ccc(N2N=NC3C4CC(C5N=NC45)C32)cc1 (stereo not drawn) [drawing 387]?
Answer: Root dry substance (soybeans [1]; 0.06 ppm): 13.5 g; Root length (soybeans [1]; 0.06 ppm): 28.3 cm; Shoot dry substance (soybeans [1]; 0.06 ppm): 39.0 g; Shoot length (soybeans [1]; 0.06 ppm): 70.7 cm; Root dry substance rel. (soybeans [1]; 0.06 ppm): 97.1; Root length rel. (soybeans [1]; 0.06 ppm): 93.4; Shoot dry substance rel. (soybeans [1]; 0.06 ppm): 94.9; Shoot length rel. (soybeans [1]; 0.06 ppm): 95.4; Root dry substance (soybeans [1]; 0.25 ppm): 13.2 g; Root length (soybeans [1]; 0.25 ppm): 24.7 cm; Shoot dry substance (soybeans [1]; 0.25 ppm): 31.5 g; Shoot length (soybeans [1]; 0.25 ppm): 62.3 cm; Root dry substance rel. (soybeans [1]; 0.25 ppm): 95.0; Root length rel. (soybeans [1]; 0.25 ppm): 81.5; Shoot dry substance rel. (soybeans [1]; 0.25 ppm): 76.6; Shoot length rel. (soybeans [1]; 0.25 ppm): 84.1; Root dry substance (soybeans [1]; 0.63 ppm): 15.0 g; Root length (soybeans [1]; 0.63 ppm): 24.7 cm; Shoot dry substance (soybeans [1]; 0.63 ppm): 26.6 g; Shoot length (soybeans [1]; 0.63 ppm): 51.7 cm; Root dry substance rel. (soybeans [1]; 0.63 ppm): 107.9; Root length rel. (soybeans [1]; 0.63 ppm): 81.5; Shoot dry substance rel. (soybeans [1]; 0.63 ppm): 64.7; Shoot length rel. (soybeans [1]; 0.63 ppm): 69.8

Question: For Brc1ccc(N2N=NC3C4CC(C5N=NC45)C32)cc1 (stereo not drawn) [drawing 388], which Root dry substance (soybeans [2]; 0.06 ppm) is on record?
Answer: Its Root dry substance is 1.5 g.

Question: And the Root length (soybeans [2]; 0.06 ppm)?
Answer: Its Root length is 21.7 cm.

Question: And the Shoot dry substance (soybeans [2]; 0.06 ppm)?
Answer: The Shoot dry substance was 5.4 g.

Question: And the Shoot length (soybeans [2]; 0.06 ppm)?
Answer: The Shoot length was 33.0 cm.

Question: And the “Root dry substance rel.” value (soybeans [2]; 0.06 ppm)?
Answer: Its value is 136.4.

Question: And the Root length rel. (soybeans [2]; 0.06 ppm)?
Answer: Its Root length rel. is 75.6.

Question: What about the “Shoot dry substance rel.” value (soybeans [2]; 0.06 ppm) of the same molecule?
Answer: The value was 93.1.

Question: And the Shoot length rel. (soybeans [2]; 0.06 ppm)?
Answer: Its Shoot length rel. is 89.9.

Question: And the Root dry substance (soybeans [2]; 0.25 ppm)?
Answer: The Root dry substance was 1.5 g.

Question: And the Root length (soybeans [2]; 0.25 ppm)?
Answer: The Root length was 20.0 cm.

Question: And the Shoot dry substance (soybeans [2]; 0.25 ppm)?
Answer: The Shoot dry substance was 4.9 g.

Question: What about the Shoot length (soybeans [2]; 0.25 ppm) of the same molecule?
Answer: The Shoot length was 21.7 cm.

Question: What about the “Root dry substance rel.” value (soybeans [2]; 0.25 ppm) of the same molecule?
Answer: The value was 136.4.

Question: And the Root length rel. (soybeans [2]; 0.25 ppm)?
Answer: Its Root length rel. is 69.7.

Question: What about the “Shoot dry substance rel.” value (soybeans [2]; 0.25 ppm) of the same molecule?
Answer: Its value is 84.5.

Question: What about the Shoot length rel. (soybeans [2]; 0.25 ppm) of the same molecule?
Answer: Its Shoot length rel. is 59.1.

Question: And the Root dry substance (soybeans [2]; 0.63 ppm)?
Answer: The Root dry substance was 2.1 g.

Question: What about the Root length (soybeans [2]; 0.63 ppm) of the same molecule?
Answer: The Root length was 20.0 cm.

Question: And the Shoot dry substance (soybeans [2]; 0.63 ppm)?
Answer: Its Shoot dry substance is 3.9 g.

Question: And the Shoot length (soybeans [2]; 0.63 ppm)?
Answer: The Shoot length was 19.0 cm.

Question: And the “Root dry substance rel.” value (soybeans [2]; 0.63 ppm)?
Answer: Its value is 190.9.

Question: What about the Root length rel. (soybeans [2]; 0.63 ppm) of the same molecule?
Answer: The Root length rel. was 69.7.

Question: And the “Shoot dry substance rel.” value (soybeans [2]; 0.63 ppm)?
Answer: Its value is 67.2.

Question: What about the Shoot length rel. (soybeans [2]; 0.63 ppm) of the same molecule?
Answer: The Shoot length rel. was 51.8.

Question: Which Root dry substance (field beans; 0.06 ppm) does the source give for Brc1ccc(N2N=NC3C4CC(C5N=NC45)C32)cc1 (stereo not drawn) [drawing 389] here?
Answer: Its Root dry substance is 3.8 g.

Question: And the Root length (field beans; 0.06 ppm)?
Answer: Its Root length is 28.3 cm.

Question: And the Shoot dry substance (field beans; 0.06 ppm)?
Answer: Its Shoot dry substance is 14.5 g.

Question: And the Shoot length (field beans; 0.06 ppm)?
Answer: The Shoot length was 69.7 cm.

Question: What about the “Root dry substance rel.” value (field beans; 0.06 ppm) of the same molecule?
Answer: Its value is 63.3.

Question: What about the Root length rel. (field beans; 0.06 ppm) of the same molecule?
Answer: Its Root length rel. is 68.5.

Question: What about the “Shoot dry substance rel.” value (field beans; 0.06 ppm) of the same molecule?
Answer: Its value is 85.8.

Question: What about the Shoot length rel. (field beans; 0.06 ppm) of the same molecule?
Answer: Its Shoot length rel. is 95.5.

Question: And the Root dry substance (field beans; 0.25 ppm)?
Answer: Its Root dry substance is 5.3 g.

Question: And the Root length (field beans; 0.25 ppm)?
Answer: Its Root length is 28.3 cm.

Question: What about the Shoot dry substance (field beans; 0.25 ppm) of the same molecule?
Answer: The Shoot dry substance was 14.5 g.

Question: And the Shoot length (field beans; 0.25 ppm)?
Answer: Its Shoot length is 67.3 cm.

Question: What about the “Root dry substance rel.” value (field beans; 0.25 ppm) of the same molecule?
Answer: The value was 85.5.

Question: What about the Root length rel. (field beans; 0.25 ppm) of the same molecule?
Answer: The Root length rel. was 68.5.

Question: What about the “Shoot dry substance rel.” value (field beans; 0.25 ppm) of the same molecule?
Answer: The value was 85.8.

Question: And the Shoot length rel. (field beans; 0.25 ppm)?
Answer: Its Shoot length rel. is 92.2.

Question: What about the Root dry substance (field beans; 0.63 ppm) of the same molecule?
Answer: The Root dry substance was 6.0 g.

Question: And the Root length (field beans; 0.63 ppm)?
Answer: The Root length was 25.0 cm.

Question: What about the Shoot dry substance (field beans; 0.63 ppm) of the same molecule?
Answer: The Shoot dry substance was 13.0 g.

Question: What about the Shoot length (field beans; 0.63 ppm) of the same molecule?
Answer: Its Shoot length is 56.7 cm.

Question: What about the “Root dry substance rel.” value (field beans; 0.63 ppm) of the same molecule?
Answer: Its value is 96.8.

Question: And the Root length rel. (field beans; 0.63 ppm)?
Answer: Its Root length rel. is 60.5.

Question: And the “Shoot dry substance rel.” value (field beans; 0.63 ppm)?
Answer: The value was 76.9.

Question: What about the Shoot length rel. (field beans; 0.63 ppm) of the same molecule?
Answer: Its Shoot length rel. is 77.7.

Question: Which results are given for Brc1ccc(N2N=NC3C4CC(C5N=NC45)C32)cc1 (stereo not drawn) [drawing 390]?
Answer: Root dry substance (sunflowers; 0.06 ppm): 1.5 g; Root length (sunflowers; 0.06 ppm): 18.7 cm; Shoot dry substance (sunflowers; 0.06 ppm): 6.3 g; Shoot length (sunflowers; 0.06 ppm): 35.0 cm; Root dry substance rel. (sunflowers; 0.06 ppm): 100; Root length rel. (sunflowers; 0.06 ppm): 93.5; Shoot dry substance rel. (sunflowers; 0.06 ppm): 98.4; Shoot length rel. (sunflowers; 0.06 ppm): 84.7; Root dry substance (sunflowers; 0.25 ppm): 1.4 g; Root length (sunflowers; 0.25 ppm): 16.7 cm; Shoot dry substance (sunflowers; 0.25 ppm): 5.3 g; Shoot length (sunflowers; 0.25 ppm): 27.3 cm; Root dry substance rel. (sunflowers; 0.25 ppm): 93.3; Root length rel. (sunflowers; 0.25 ppm): 83.5; Shoot dry substance rel. (sunflowers; 0.25 ppm): 82.8; Shoot length rel. (sunflowers; 0.25 ppm): 66.1; Root dry substance (sunflowers; 0.63 ppm): 1.6 g; Root length (sunflowers; 0.63 ppm): 12.7 cm; Shoot dry substance (sunflowers; 0.63 ppm): 5.2 g; Shoot length (sunflowers; 0.63 ppm): 27.3 cm; Root dry substance rel. (sunflowers; 0.63 ppm): 106.7; Root length rel. (sunflowers; 0.63 ppm): 63.5; Shoot dry substance rel. (sunflowers; 0.63 ppm): 81.3; Shoot length rel. (sunflowers; 0.63 ppm): 66.1

Question: For Clc1ccc(N2N=NC3C4CC(C5N=NC45)C32)cc1 (stereo not drawn) [drawing 391], which Shoot length (cotton; 0.3 ppm) is on record?
Answer: Its Shoot length is 40.2 cm.

Question: And the “No. of squares per vessel (3 plants)” value (cotton; 0.3 ppm)?
Answer: Its value is 4.0.

Question: What about the Shoot length rel. (cotton; 0.3 ppm) of the same molecule?
Answer: The Shoot length rel. was 85.2.

Question: And the Shoot length (cotton; 1.25 ppm)?
Answer: The Shoot length was 27.8 cm.

Question: What about the “No. of squares per vessel (3 plants)” value (cotton; 1.25 ppm) of the same molecule?
Answer: Its value is 8.7.

Question: What about the Shoot length rel. (cotton; 1.25 ppm) of the same molecule?
Answer: Its Shoot length rel. is 58.9.

Question: With Brc1ccc(N2N=NC3C4CC(C5N=NC45)C32)cc1 (stereo not drawn) [drawing 392] as the molecule, how does the Shoot length (cotton; 0.3 ppm) read?
Answer: The Shoot length was 41.9 cm.

Question: And the “No. of squares per vessel (3 plants)” value (cotton; 0.3 ppm)?
Answer: The value was 2.6.

Question: What about the Shoot length rel. (cotton; 0.3 ppm) of the same molecule?
Answer: Its Shoot length rel. is 88.8.

Question: And the Shoot length (cotton; 1.25 ppm)?
Answer: The Shoot length was 30.9 cm.

Question: What about the “No. of squares per vessel (3 plants)” value (cotton; 1.25 ppm) of the same molecule?
Answer: The value was 8.3.

Question: What about the Shoot length rel. (cotton; 1.25 ppm) of the same molecule?
Answer: The Shoot length rel. was 65.5.
